Measurements published in patent US11401243B2, “Quinoline derived small molecule inhibitors of nicotinamide N-methyltransferase (NNMT) and uses thereof” (priority 2017, dated 2022).
“Also recorded” adds a separate entry of the source.

Tests used:
[1] = Parallel artificial membrane permeability assay (PAMPA); format: in vitro ADME; conditions: for Permeability Classification (passive transport): BCS classification
Description: Samples were tested in triplicates in three separate experiments.

human NNMT (mt-hNNMT) = biological target: T1, human NNMT (mt-hNNMT) (Homo sapiens, UniProt P40261, E101A/E103A/K100A); assay: NNMT activity assay (HPLC-UV detection of MNA), NNMT IC50 curves; conditions: for IC50: NNMT Inhibition IC50, mean ± SD of duplicate or triplicate measurements, NI = no observable inhibition
T1 sequence (P40261 1-261 K100A/E101A/E103A limits assumed): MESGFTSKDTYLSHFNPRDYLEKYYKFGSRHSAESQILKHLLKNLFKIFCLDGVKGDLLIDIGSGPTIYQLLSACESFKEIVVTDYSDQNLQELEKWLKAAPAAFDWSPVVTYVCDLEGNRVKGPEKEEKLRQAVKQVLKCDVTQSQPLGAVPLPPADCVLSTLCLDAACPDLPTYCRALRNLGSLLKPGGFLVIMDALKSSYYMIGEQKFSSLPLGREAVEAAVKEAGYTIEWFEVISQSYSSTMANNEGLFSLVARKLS

[2] = system: 3T3-L1 pre-adipocytes cells; assay: MTT cell viability assay; format: cell-based; conditions: 3T3-L1 pre-adipocytes, 24 h
Description: Cells were treated for 24 h with 0.1-600 μM NNMT inhibitors in cell culture media. A 24 h time point was chosen based on a previous report of using this time period for transfecting or treating 3T3-L1 cells with NNMT anti-sense oligonucleotides or a small molecule NNMT product inhibitor (1-MNA), respectively, for phenotypic measures. MTT (3-(4,5-dimethylthiazol-2-yl)-2,5-diphenyltetrazolium bromide) (ATCC; Manassas, Va., USA) was added to each well and assayed according to the manufacturer's instructions. Absorbance corresponding to the amount of formazan dye produced by treated cells was normalized to that produced by control (untreated) cells to calculate % viable cells in the treated samples.

[3] = Bi-directional permeability assay with Caco-2 cells; conditions: human
Caco-2 cells = assay: as above; conditions: Caco-2; listed as 7-amino-1MQ
[4] = 400 μM in PBS, 4 h, room temperature

IC50 (human NNMT (mt-hNNMT)) [µM]	Molecule	other results
7.5 ± 2.2	Cc1cc[n+](C)c2ccccc12 [1h]	–
5.7 ± 1.8	C[n+]1cccc2cc(F)ccc21 [1k]	–
120 ± 50.1	COc1ccc2c(ccc[n+]2C)c1 [1n]	–
709 ± 179	C[n+]1cccc2ccc(O)cc21 [1p]	–
95.2 ± 21	C[n+]1cccc2cccc(O)c21 [1r]	–
27.1 ± 5.4	CC[n+]1cccc2ccccc21 [1s]	–

The next lines start with the molecule.

Molecule	IC50 (human NNMT (mt-hNNMT)) [µM]	other results
1-methylnicotinamide [reference compound]	–	Flux [1, 4]: 0 cm/s; Permeability Classification (passive transport) [1]: No permeability; Permeability Classification (passive transport) ([1]; listed as 1-MNA): no passive permeability
C[n+]1cccc2ccccc21 [1a, 1-methylquinolinium]	12.1 ± 3.1	Flux [1, 4]: 0 cm/s; Permeability Classification (passive transport) [1]: No permeability; Permeability Classification (passive transport) ([1]; listed as 1-MQ): lacked passive diffusion properties
Cc1ccc2ccccc2[n+]1C [1b]	21 ± 2.1	–
C[n+]1c(N)ccc2ccccc21.[I-] [1c, 2-amino-1-methylquinolin-1-ium Iodide]	6.3 ± 1.1	inhibitory activity against NNMT (in words) (human NNMT (mt-hNNMT)): exhibited inhibitory activity
C[n+]1cc(N)cc2ccccc21 [1d]	2.9	–
C[n+]1cc(C#N)cc2ccccc21 [1e]	23.8 ± 5.6	–
CNc1cc2ccccc2[n+](C)c1.[I-] [1f, 1-methyl-3-(methylamino)quinolin-1-ium Iodide]	4 ± 1.5	inhibitory activity against NNMT (in words) (human NNMT (mt-hNNMT)): exhibited inhibitory activity
C[n+]1cc(Nc2ccccc2)cc2ccccc21 [1g]	> 1000	–
C[n+]1ccc(N)c2ccccc21 [1i]	11.4 ± 2.1	–
C[n+]1cccc2cc(N)ccc21.[I-] [1m, 6-amino-1-methylquinolin-1-ium Iodide]	34.4 ± 9.6	inhibitory activity against NNMT (in words) (human NNMT (mt-hNNMT)): exhibited inhibitory activity
C[n+]1cccc2ccc(N)cc21 [1o]	2.6 ± 0.5	Papp at 4 h, 400 μM ([1]; 400 μM in PBS, 4 h, room temperature, read-out: Flux): 2.05 ×10⁻⁶ cm/s; Permeability Classification (passive transport) ([1]; listed as 7-amino-1MQ): high passive and active transport; also recorded: High permeability; cell viability ([2]; 10 μM): did not impact cell viability; cytotoxicity ([2]; 600 μM (highest concentration tested)): ~40%; cytotoxicity relative to untreated cells ([2]; 100-300 μM): modest cytotoxicity; efflux ratio at 2 h, 10 μM ([3]; Caco-2): 1.52; Papp A→B at 2 h, 10 μM ([3]; Caco-2, pH 7.4): 26 ×10⁻⁶ cm/s; Papp B→A at 2 h, 10 μM ([3]; Caco-2, pH 7.4): 39.6 ×10⁻⁶ cm/s; Classification (active transport / efflux) (Caco-2 cells): no detectable efflux; also recorded: High permeability
COCC[n+]1cccc2ccccc21 [1t]	> 1000	–
O=C(C[n+]1cccc2ccccc21)c1ccccc1 [1u]	> 1000	–
